Experimental data reported in publication PMC6154605, “Multi-Anti-Parasitic Activity of Arylidene Ketones and Thiazolidene Hydrazines against Trypanosoma cruzi and Leishmania spp” (Molecules : A Journal of Synthetic Chemistry and Natural …, 2017).

Assays:
[1] = tested on: J774.1 murine macrophages; details: J774.1; read-out: IC50 ± SD Murine Macrophages; cited from earlier work
[2] = tested on: L. braziliensis promastigotes; test: Leishmanicidal activity on promastigotes, resazurin; assay type: cell-based, Leishmania braziliensis
How it was run: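 Promastigotes (2 × 10^6/well) in Schneider's medium with 20% FBS treated with compound dilutions for 48 h at 26 °C. Resazurin reduction read at 570 and 600 nm; IC50 from duplicate experiments, triplicate concentrations.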

[3] = molecular target: cruzipain (Trypanosoma cruzi, UniProt P25779); test: Inhibition of T. cruzi cruzipain; assay type: biochemical; details: at 100 µM; read-out: Percentage of Inhibition Cruzipain
cruzipain, sequence (P25779 123-467): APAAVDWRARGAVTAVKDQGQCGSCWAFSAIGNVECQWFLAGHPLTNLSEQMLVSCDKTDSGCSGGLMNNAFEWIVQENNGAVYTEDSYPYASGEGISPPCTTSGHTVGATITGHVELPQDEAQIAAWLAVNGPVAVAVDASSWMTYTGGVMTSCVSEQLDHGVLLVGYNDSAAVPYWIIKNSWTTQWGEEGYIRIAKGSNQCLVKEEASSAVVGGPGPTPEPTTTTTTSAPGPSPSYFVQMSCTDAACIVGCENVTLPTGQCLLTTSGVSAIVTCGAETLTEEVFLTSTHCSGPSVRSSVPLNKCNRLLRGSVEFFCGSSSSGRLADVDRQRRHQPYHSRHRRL
Method: Cruzipain was purified to homogeneity from epimastigotes of the Tulahuen 2 strain by ConA–Sepharose affinity chromatography, as previously described. Cruzipain (2.5 μM ε = 58,285 M^−1cm^−1) was incubated in 50 mM acetate buffer pH 5.5 with 5 mM DTT, and 100 μM inhibitor were added, shaking the solution for 15 min at 27 °C. The derivatives were added as solutions in DMSO, and the controls contained the same solvent concentration. The concentration of DMSO never exceeded 1% in the reaction medium. L-leucylam-ido(4-guanidino)butane (E-64) was used as a positive control of inhibition. Then, the fluorogenic substrate Z-Phe-Arg 7-amido-4-methylcoumarin hydrochloride (Z-Phe-Arg-AMC) at 10 μM was added, and the fluorescence was measured during 10 min at intervals of 3 s (excitation at 380 nm and emission at 460 nm) using a Varioskan Flash Spectrophotometer. From the slope of the negative control, we calculated the total (100%) enzyme activity, while the slopes obtained in the presence of the compounds yielded the percentage of remaining enzyme activity. The percentage of enzyme inhibition was determined as […]. The experiments were done in duplicate.

[4] = molecular target: triosephosphate isomerase from T. cruzi (TcTIM) (Trypanosoma cruzi, UniProt P52270); test: Inhibition of triosephosphate isomerase; details: read-out: Percentage of Inhibition TcTIM
triosephosphate isomerase from T. cruzi (TcTIM), sequence (P52270 whole entry): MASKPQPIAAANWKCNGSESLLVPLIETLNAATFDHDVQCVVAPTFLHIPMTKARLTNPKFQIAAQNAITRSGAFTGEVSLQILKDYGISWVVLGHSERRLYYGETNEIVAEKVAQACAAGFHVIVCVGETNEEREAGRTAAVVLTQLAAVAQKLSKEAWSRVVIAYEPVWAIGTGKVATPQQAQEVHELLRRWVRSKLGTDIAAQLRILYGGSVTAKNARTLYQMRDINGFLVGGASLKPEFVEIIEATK
Method: Expression and purification of proteins: TcTIM, LmTIM and HsTIM were expressed in Escherichia coli and purified as described in the literature [39]. […] Before use, extensive dialysis against 100 mM triethanolamine/10 mM EDTA (pH 7.4) was performed.
Enzymatic activity assays: Enzymatic activity was determined following the conversion of glyceraldehyde 3-phosphate into dihydroxyacetone phosphate. […] The reaction mixture (1 mL, pH 7.4) contained 100 mM triethanolamine, 10 mM EDTA, 0.2 mM NADH, 1 mM glyceraldehyde 3-phosphate and 0.9 units of α-glycerol phosphate dehydrogenase. The reaction was initiated by the addition of 5 ng/mL of the TcTIM.
The mixture also contained the compounds at the indicated concentrations. Compounds were dissolved in DMSO. After 2 h, 10 µL was withdrawn and added to a final volume of 100 µL of the reaction mixture for the activity assay. The inhibition assay was performed in a 96-well microplate Varioskan spectrophotometer. […] The experiments were performed in triplicate.

With `C=CCn1c(-c2ccc(Cl)cc2)cs\c1=N/N=C/C=C/c1ccco1` [GAT1033] as the compound, how does the IC50 [1] read?
The IC50 was 60 ± 6 µM.

What about the IC50 ([2]; Leishmania braziliensis, 48 h, read-out: IC50 ± SD Promastigotes L. braziliensis) of the same compound?
The IC50 was 7 ± 1 µM.

And the “SI NCTC/ L. braziliensis” value ([2]; ratio IC50 mammalian cell / IC50 parasite (promastigotes))?
The value was 58.

And the inhibition at 100 µM [3]?
Its inhibition at 100 µM is 0%.

And the inhibition at 100 µM [4]?
Its inhibition at 100 µM is 0%.
